According to article PMC11272821, “Mechanistic safety assessment via multi-omic characterisation of systemic pathway perturbations following in vivo MAT2A inhibition” (Archives of Toxicology, 2024):

What was measured:
HCT116 MTAP KO cells = assay: HCT116 cell SDMA assay, MTAP KO; type: cell-based
From the text: The structure and in vitro properties of the compound are shown in Table 1 together with potency in the HCT116 isogenic cell line (MTAP WT and KO) and in the MAT2A biochemical assay (SAM endpoint).

A1 adenosine receptor = target: T1, A1 adenosine receptor (Homo sapiens, UniProt P30542); assay: Cell based functional assay; conditions: mode of action ND
T1 construct: purchased Eurofins
T1 sequence (P30542 whole entry): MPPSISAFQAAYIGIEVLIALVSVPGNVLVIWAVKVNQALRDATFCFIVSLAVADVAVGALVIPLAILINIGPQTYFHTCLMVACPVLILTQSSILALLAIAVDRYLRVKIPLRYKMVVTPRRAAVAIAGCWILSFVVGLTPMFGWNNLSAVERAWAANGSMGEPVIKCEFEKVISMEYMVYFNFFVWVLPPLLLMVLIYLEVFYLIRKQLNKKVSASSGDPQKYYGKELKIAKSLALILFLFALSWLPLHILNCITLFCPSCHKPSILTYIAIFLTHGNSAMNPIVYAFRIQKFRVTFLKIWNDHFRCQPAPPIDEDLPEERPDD
Experimental: (§1) Secondary pharmacology assays were performed at Eurofins using standard experimental techniques against a total of 86 targets across a broad pharmacological space. Assay details along with experimental protocols are described at https://www.eurofinsdiscoveryservices.com. […] Assays measuring substrate turnover or phosphorylation by isolated proteins were used for kinase and enzyme targets, allowing direct determination of the mode of action of the compounds. […] Assays were run in eight points concentration response mode with half log dilutions and IC50, EC50 or Ki (Cheng and Prusoff [1973]) values determined.

α1B adrenoceptor = target: T2, α1B adrenoceptor (Homo sapiens, UniProt P35368); assay: Cell based functional assay
T2 construct: Eurofins
T2 sequence (P35368 1-520): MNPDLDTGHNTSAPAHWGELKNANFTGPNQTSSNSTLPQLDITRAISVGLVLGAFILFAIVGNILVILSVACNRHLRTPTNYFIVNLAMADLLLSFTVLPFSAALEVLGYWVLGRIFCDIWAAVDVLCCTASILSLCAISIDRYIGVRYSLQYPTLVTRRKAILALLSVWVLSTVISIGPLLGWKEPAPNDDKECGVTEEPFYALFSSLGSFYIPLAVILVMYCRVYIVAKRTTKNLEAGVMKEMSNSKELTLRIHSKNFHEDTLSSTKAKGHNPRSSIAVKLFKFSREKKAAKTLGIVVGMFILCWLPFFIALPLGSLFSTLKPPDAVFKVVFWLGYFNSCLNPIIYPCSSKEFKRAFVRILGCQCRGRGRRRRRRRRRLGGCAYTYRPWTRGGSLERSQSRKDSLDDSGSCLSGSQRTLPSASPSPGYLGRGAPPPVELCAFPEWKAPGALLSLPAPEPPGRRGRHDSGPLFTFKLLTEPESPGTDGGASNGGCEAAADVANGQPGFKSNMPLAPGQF
Experimental: as §1

5-HT7 receptor = target: T3, 5-HT7 receptor (Homo sapiens, UniProt P34969); assay: Cell based functional assay
T3 construct: Eurofins
T3 sequence (P34969 whole entry): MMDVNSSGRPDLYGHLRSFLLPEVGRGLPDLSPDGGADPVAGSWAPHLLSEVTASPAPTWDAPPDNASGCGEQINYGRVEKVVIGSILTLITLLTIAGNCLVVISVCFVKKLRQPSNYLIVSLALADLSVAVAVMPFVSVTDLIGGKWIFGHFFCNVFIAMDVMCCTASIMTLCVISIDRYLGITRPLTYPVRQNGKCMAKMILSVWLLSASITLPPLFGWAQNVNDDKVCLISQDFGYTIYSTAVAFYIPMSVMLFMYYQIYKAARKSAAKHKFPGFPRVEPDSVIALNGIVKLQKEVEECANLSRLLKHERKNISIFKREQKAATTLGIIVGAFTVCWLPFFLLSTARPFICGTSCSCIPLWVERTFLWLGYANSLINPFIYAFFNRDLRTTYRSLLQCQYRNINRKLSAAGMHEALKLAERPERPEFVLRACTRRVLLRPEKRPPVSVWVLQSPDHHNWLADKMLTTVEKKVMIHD
Experimental: as §1

M2 muscarinic receptor = target: T4, M2 muscarinic receptor (Homo sapiens, UniProt P08172); assay: Cell based functional assay
T4 construct: Eurofins
T4 sequence (P08172 1-466): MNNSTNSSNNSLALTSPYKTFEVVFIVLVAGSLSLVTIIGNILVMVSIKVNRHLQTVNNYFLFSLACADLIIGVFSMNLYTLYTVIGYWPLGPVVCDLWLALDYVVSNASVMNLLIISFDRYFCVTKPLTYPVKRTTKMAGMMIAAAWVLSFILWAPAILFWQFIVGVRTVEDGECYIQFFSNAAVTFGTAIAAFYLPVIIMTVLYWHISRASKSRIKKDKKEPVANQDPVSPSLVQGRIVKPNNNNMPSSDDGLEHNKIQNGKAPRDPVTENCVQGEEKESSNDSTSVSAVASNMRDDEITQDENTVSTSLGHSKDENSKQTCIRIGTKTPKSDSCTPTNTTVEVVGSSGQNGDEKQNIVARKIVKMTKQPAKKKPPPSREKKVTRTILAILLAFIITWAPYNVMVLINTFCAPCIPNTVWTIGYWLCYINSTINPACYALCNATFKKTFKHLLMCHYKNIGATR
Experimental: as §1

CB1 cannabinoid receptor = target: T5, CB1 cannabinoid receptor (Homo sapiens, UniProt P21554); assay: Cell based functional assay; conditions: mode of action ND
T5 construct: purchased Eurofins
T5 sequence (P21554 whole entry): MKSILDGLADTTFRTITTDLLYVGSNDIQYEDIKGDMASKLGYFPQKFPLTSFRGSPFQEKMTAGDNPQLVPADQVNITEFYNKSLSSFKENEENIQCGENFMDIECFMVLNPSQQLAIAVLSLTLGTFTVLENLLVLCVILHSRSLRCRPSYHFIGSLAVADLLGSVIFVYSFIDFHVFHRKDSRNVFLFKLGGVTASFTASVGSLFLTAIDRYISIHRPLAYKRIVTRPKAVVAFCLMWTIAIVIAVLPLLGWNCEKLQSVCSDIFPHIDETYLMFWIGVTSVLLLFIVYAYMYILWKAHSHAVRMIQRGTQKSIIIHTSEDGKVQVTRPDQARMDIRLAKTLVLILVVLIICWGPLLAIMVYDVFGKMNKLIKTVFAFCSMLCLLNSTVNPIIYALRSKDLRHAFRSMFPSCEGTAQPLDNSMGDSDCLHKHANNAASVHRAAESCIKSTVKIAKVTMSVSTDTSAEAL
Experimental: as §1

A2A adenosine receptor = target: T6, A2A adenosine receptor (Homo sapiens, UniProt P29274); assay: Cell based functional assay; conditions: mode of action ND
T6 construct: Eurofins
T6 sequence (P29274 whole entry): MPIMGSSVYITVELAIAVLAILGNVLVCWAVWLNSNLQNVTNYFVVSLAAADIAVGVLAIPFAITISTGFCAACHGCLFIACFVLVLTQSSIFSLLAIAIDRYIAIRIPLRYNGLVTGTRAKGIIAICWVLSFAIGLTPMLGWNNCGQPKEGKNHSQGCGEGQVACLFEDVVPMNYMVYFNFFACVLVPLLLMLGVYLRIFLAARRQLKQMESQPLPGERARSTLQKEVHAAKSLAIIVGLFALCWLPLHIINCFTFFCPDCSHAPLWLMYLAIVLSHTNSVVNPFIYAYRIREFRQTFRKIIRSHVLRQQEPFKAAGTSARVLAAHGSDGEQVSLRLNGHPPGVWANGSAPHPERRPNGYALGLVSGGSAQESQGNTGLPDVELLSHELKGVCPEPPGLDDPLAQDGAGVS
Experimental: as §1

[1] = Antagonist, read-out: Functional IC50 or EC50

SMILES: Cn1cc2cc(-c3cc4[nH]nc(C5CC5)c4n(-c4ccc(OC(F)F)cc4)c3=O)ccc2n1 [AZ’9567]
- HCT116 cell SDMA pIC50 MTAP KO (HCT116 MTAP KO cells): 8.6
- Functional IC50 or EC50 (A1 adenosine receptor): >30.1 µM
- Pharmacological mode of action (α1B adrenoceptor): Antagonist
- IC50 (α1B adrenoceptor; [1]): 28.9 µM
- Pharmacological mode of action (5-HT7 receptor): Antagonist
- IC50 (5-HT7 receptor; [1]): 2.9 µM
- Pharmacological mode of action (M2 muscarinic receptor): Antagonist
- IC50 (M2 muscarinic receptor; [1]): 17.1 µM
- Functional IC50 or EC50 (CB1 cannabinoid receptor): >100 µM
- Functional IC50 or EC50 (A2A adenosine receptor): >100 µM
